Source: patent publication US12600732B2, “Bifunctional compounds for degrading BTK via ubiquitin proteosome pathway” (NURIX THERAPEUTICS, INC., priority 2019, dated 2026)
Where “and” joins values, the source holds several entries; their conditions need not be identical. Equal values may be shown once.

How the values were obtained:
BTK = target: T1, BTK (Mus musculus, UniProt P35991); test: In vivo degradation of BTK in mouse PD experiments with oral dosing
T1 construct: from tissue; host or cells: mouse blood B cells / splenocytes (CD-1 or BALB/c)
Procedure, shortened: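 BTK in blood or splenocytes read by flow cytometry (or HTRF), degradation taken as B-cell minus T-cell BTK MFI versus vehicle. Mice (CD-1 or BALB/c) received compound orally, initially 90 mg/kg for 6 h, then lower doses and longer time points.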

TMD8 C481S cells = test: Cell viability assay (CellTiter-Glo), TMD8 C481S cells; details: for EC50: Homo sapiens, TMD8, 72 h; for EMAX (% viable cells): TMD8 C481S cells, treatment time 72 h
primary human T cells [1] = test: T cell activation assay, IL-2 secretion (ELISA); type: cell-based
Protocol: (§1) This example evaluates whether CTMs with IMiD activity affect T cell activation. […] These assays were performed to assess whether BTK CTMs with and without IMiD activity affected activation of primary human T cells after stimulation of the T cell receptor with anti-CD3/ati-CD28 stimulation. T cell activation was measured by IL-2 secretion (ELISA assay) and upregulation of activation markers CD25 and CD69 on the surface of T cells (flow cytometry). Data are presented as the fold-change of response relative to baseline (stimulation with anti-CD3/anti-CD28 stimulation in the absence of compound).

TMD8 cells = test: Cell viability assay (CellTiter-Glo), TMD8 cells; details: for EC50: Homo sapiens, TMD8, 72 h; for EMAX (% viable cells): TMD8 cells, treatment time 72 h
primary human T cells [2] = test: T cell activation assay, CD25 and CD69 staining (flow cytometry); type: cell-based; details: for CD25 Staining Anti-CD3/Anti-CD28 Stimulation / CD69 Staining Anti-CD3/Anti-CD28 Stimulation: fold-change of response relative to baseline
Protocol: as §1

BTK C481S = BTK C481S (Homo sapiens, UniProt Q06187, C481S); test: BTK degradation (Total BTK HTRF) in TMD8 cells expressing BTK-C481S; type: cell-based; design: endogenous in cells; host or cells: TMD8 BTK-C481S (clone2C3), Cas9 RNP knock-in; details: TMD8 BTK-C481S (clone2C3) cells, treatment time 4 h
Protocol: BTK levels were determined using Cisbio Total-BTK HTRF (Homologous Time-Resolved Fluorescence) kit (63ADK064PEG) according to the manufacturer's protocol. Briefly, cells were incubated in 1× supplied lysis buffer for 30 minutes. In an opaque white low volume 96-well plate (Cisbio, 66PL96005), cell lysate was combined with two different specific BTK antibodies, one conjugated with Eu^3+-Cryptate FRET donor and one conjugated with d2 FRET acceptor. Assay controls include wells containing cell lysate with only the Eu^3+-Cryptate FRET donor antibody and wells containing both HTRF antibodies and lysis buffer without cells or control lysate provided by Cisbio. HTRF ratio was calculated as (acceptor signal at 665 nm/donor signal at 620 nm)×10^4. Background HTRF levels were determined from the control well containing the donor, but no acceptor, antibody. Background HTRF levels were subtracted from all samples. Readouts were reported as HTRF levels relative to HTRF levels of DMSO-treated cells. Four-parameter non-linear regressions were performed in GraphPad Prism 7.02 to obtain DC50 values.
BTK Degradation (Total BTK HTRF) at Four Hours in TMD8 Cells Expressing BTK-C481S
This example evaluates the potency of CTM in degrading […]. The BTK binding moieties utilized in CTMs bind to the BTK active site. This example evaluates whether the active site mutation C481S affects CTM-induced degradation of BTK.

[3] = 1.4 nM, fold-change of response relative to baseline
[4] = 37 nM, fold-change of response relative to baseline
[5] = 333 nM, fold-change of response relative to baseline (stimulation without compound)
[6] = oral dose 30 mg/kg, 24 h, blood, flow cytometry
[7] = oral dose 30 mg/kg, 24 h, splenocytes, HTRF

Structure (SMILES)	DC50 (BTK C481S) [nM]	EC50 (TMD8 C481S cells) [nM]	EMAX (% viable cells) (TMD8 C481S cells) [%]	IL-2 Secretion Anti-CD3/Anti-CD28 Stimulation (primary human T cells [1]; [3])	IL-2 Secretion Anti-CD3/Anti-CD28 Stimulation (primary human T cells [1]; [4])	IL-2 Secretion Anti-CD3/Anti-CD28 Stimulation (primary human T cells [1]; [5])	EC50 (TMD8 cells) [nM]	EMAX (% viable cells) (TMD8 cells) [%]	CD25 Staining Anti-CD3/Anti-CD28 Stimulation (primary human T cells [2]; 1.4 nM)	CD69 Staining Anti-CD3/Anti-CD28 Stimulation (primary human T cells [2]; 1.4 nM)	CD25 Staining Anti-CD3/Anti-CD28 Stimulation (primary human T cells [2]; 37 nM)	CD69 Staining Anti-CD3/Anti-CD28 Stimulation (primary human T cells [2]; 37 nM)	CD25 Staining Anti-CD3/Anti-CD28 Stimulation (primary human T cells [2]; 333 nM)	CD69 Staining Anti-CD3/Anti-CD28 Stimulation (primary human T cells [2]; 333 nM)	other results
CN1CCN([C@H]2CCCN(c3cnc(C(N)=O)c(Nc4cnn(C5CCN(CC6CN(c7ccc8c(c7)C(=O)N(C7CCC(=O)NC7=O)C8=O)C6)CC5)c4)n3)C2)C1=O (some centres unmarked) [Compound 78]		7.19	37	1.00	1.17	1.20	9.04	41	0.99	1.00	0.73	0.66	0.44	0.43	% BTK Remaining (BTK; oral dose 3 mg/kg, 6 h, blood, flow cytometry): 74%
CN1CCN([C@@H]2CCCN(c3cnc(C(N)=O)c(Nc4ccc(C5CCN(C6CN(Cc7ccc8c(c7)C(=O)N(C7CCC(=O)NC7=O)C8=O)C6)CC5)cc4)n3)C2)C1=O (some centres unmarked) [Compound 101]	4.3	431	27				93.4	27							
CN1CCN([C@H]2CCCN(c3cnc(C(N)=O)c(Nc4ccc(C5CCN(CC6CCN(c7ccc(NC8CCC(=O)NC8=O)cn7)CC6)CC5)cc4)n3)C2)C1=O (some centres unmarked) [Compound 129]	5.3	4.36	14				3.17	16							% BTK Remaining (BTK; [6]): 16%
NC(=O)c1ncc(N2CCC[C@H](N3CCOC3=O)C2)nc1Nc1ccc(N2CCC(C3CN(c4ccc5c(c4)C(=O)N(C4CCC(=O)NC4=O)C5=O)C3)CC2)cc1 (some centres unmarked) [Compound 70]	3.1														% BTK Remaining (BTK; [7]): 42%
CN1CCN([C@@H]2CCCN(c3cnc(C(N)=O)c(Nc4ccc(N5CC6(C5)CN(c5ccc7c(c5)C(=O)N(C5CCC(=O)NC5=O)C7=O)C6)cc4)n3)C2)C1=O (stereo partly drawn) [Compound 34, 3-((4-(6-(2-(2,6-dioxopiperidin-3-yl)-1,3-dioxoisoindolin-5-yl)-2,6-diazaspiro[3.3]heptan-2-yl)phenyl)amino)-5-((R)-3-(3-methyl-2-oxoimidazolidin-1-yl)piperidin-1-yl)pyrazine-2-carboxamide]				1.48	1.66	1.58			1.21	1.14	1.31	1.21	1.25	1.23	% BTK Remaining (BTK; oral dose 1 mg/kg, 6 h, splenocytes, HTRF): 75%
CN1CCN([C@@H]2CCCN(c3cnc(C(N)=O)c(Nc4ccc(C5CCN(CC6CCN(c7ccc8c(c7)C(=O)N(C7CCC(=O)NC7=O)C8=O)CC6)CC5)cc4)n3)C2)C1=O (some centres unmarked) [Compound 51]		1.95	49	1.19	1.99	2.12	0.32	20	0.86	0.91	0.62	0.62	0.38	0.39	% BTK Remaining (BTK; oral dose 90 mg/kg, 6 h, splenocytes, HTRF): 2%
CN1CCN([C@@H]2CCCN(c3cnc(C(N)=O)c(Nc4ccc(N5CCN(C[C@@H]6[C@H]7CN(c8ccc9c(c8)C(=O)N(C8CCC(=O)NC8=O)C9=O)C[C@@H]67)CC5)cc4)n3)C2)C1=O (some centres unmarked) [Compound 38]				1.21	1.58	1.81			1.05	1.02	1.02	0.99	0.86	0.90	% BTK Remaining (BTK; oral dose 1 mg/kg, 6 h, splenocytes, HTRF, 1 mg/kg): 68% and 76%; % BTK Remaining (BTK; oral dose 3 mg/kg, 6 h, splenocytes, HTRF): 38%
CN1CCN([C@@H]2CCCN(c3cnc(C(N)=O)c(Nc4ccc(C5CCN(CC6CCN(c7ccc8c(c7)n(C)c(=O)n8C7CCC(=O)NC7=O)CC6)CC5)cc4)n3)C2)C1=O (some centres unmarked) [Compound 156]	0.4														
Nc1cccc2c1C(=O)N(C1CCC(=O)NC1=O)C2=O (centres unmarked) [Pomalidomide, pomalidomide, reference compound]				1.31	4.80	5.50			1.03	1.01	1.39	1.33	1.63	1.77	IL-2 secretion compared to baseline (anti-CD3/anti-CD28 stimulation alone) (primary human T cells [1]; primary human T cells): induce IL-2 secretion; expression of CD25 and CD69 compared to baseline (anti-CD3/anti-CD28 stimulation alone) (primary human T cells [2]; primary human T cells): increase expression
CN1CCN([C@H]2CCCN(c3cnc(C(N)=O)c(Nc4ccc5c(c4)CCN(CC4CN(c6ccc7c(c6)C(=O)N(C6CCC(=O)NC6=O)C7=O)C4)C5)n3)C2)C1=O (some centres unmarked) [Compound 92]				1.53	2.19	1.63			1.14	1.09	1.21	1.29	1.06	1.35	

The next lines start with results.

DC50 (BTK C481S) [nM]	Structure (SMILES)	EC50 (TMD8 C481S cells) [nM]	EMAX (% viable cells) (TMD8 C481S cells) [%]	IL-2 Secretion Anti-CD3/Anti-CD28 Stimulation (primary human T cells [1]; [3])	IL-2 Secretion Anti-CD3/Anti-CD28 Stimulation (primary human T cells [1]; [4])	IL-2 Secretion Anti-CD3/Anti-CD28 Stimulation (primary human T cells [1]; [5])	EC50 (TMD8 cells) [nM]	EMAX (% viable cells) (TMD8 cells) [%]	CD25 Staining Anti-CD3/Anti-CD28 Stimulation (primary human T cells [2]; 1.4 nM)	CD69 Staining Anti-CD3/Anti-CD28 Stimulation (primary human T cells [2]; 1.4 nM)	CD25 Staining Anti-CD3/Anti-CD28 Stimulation (primary human T cells [2]; 37 nM)	CD69 Staining Anti-CD3/Anti-CD28 Stimulation (primary human T cells [2]; 37 nM)	CD25 Staining Anti-CD3/Anti-CD28 Stimulation (primary human T cells [2]; 333 nM)	CD69 Staining Anti-CD3/Anti-CD28 Stimulation (primary human T cells [2]; 333 nM)	other results
8.3	NC(=O)c1ncc(N2CCCCC2)nc1Nc1ccc(C2CCN(CC3CCN(c4ccc5c(=O)n(C6CCC(=O)NC6=O)ccc5c4)CC3)CC2)cc1 (centres unmarked) [Compound 133]	6.83	9				6.98	15							% BTK Remaining (BTK; [6]): 10%
8.1	CN1CCN([C@@H]2CCCN(c3cnc(C(N)=O)c(Nc4ccc(C5CCN(CC6CCN(c7ccc(NC8CCC(=O)NC8=O)nc7)CC6)CC5)cc4)n3)C2)C1=O (some centres unmarked) [Compound 166]														% BTK Remaining (BTK; [7]): 19%
14.5	NC(=O)c1ncc(N2CCCCC2)nc1Nc1ccc(C2CCN(CC3CCN(c4ccc(C(=O)NC5CCC(=O)NC5=O)nc4)CC3)CC2)cc1 (centres unmarked) [Compound 182]														% BTK Remaining (BTK; [7]): 12%
7.7	NC(=O)c1ncc(N2CCCC3(COC3)C2)nc1Nc1ccc(C2CCN(C[C@H]3CCN(c4ccc5c(c4)C(=O)N(C4CCC(=O)NC4=O)C5=O)C3)CC2)cc1 (some centres unmarked) [Compound 126]														% BTK Remaining (BTK; [6]): 33%
